Experimental data taken from patent US20080286355A1, “Protease Inhibitors For the Treatment of Digestive Pathologies” (priority 2004, published 2008).

Legend:
Type in all cases: in vivo
male Swiss mice [1] = experiment: Paracellular permeability in mouse colon (51Cr-EDTA) during intracolonic infusion of protease inhibitors; conditions: 5-hour intracolonic infusion 250 μl/h, 51Cr-EDTA from hours 3 to 5
Experimental: Six groups of ten male Swiss mice (25-30 g) were used for this study. The animals received a 5-hour intracolonic infusion (250 μl/h) of the different protease inhibitor solutions through a catheter inserted through the rectum and fixed at the base of the tail; ^51Cr-EDTA was added to the infusion from hours 3 to 5 (FIG. 2). At t=5 hours, the animals were sacrificed, the colons removed, and total radioactivity remaining in the body was taken as an indicator of paracellular permeability.

male Wistar rats [2] = experiment: Colon mucosa permeability to 51Cr-EDTA, radioactivity in 24-hour urine of rats; conditions: rat; SLIGRL 0.05, 0.2 and 0.5 mg/rat into colon lumen at t=0; 10-hour intracolonic 51Cr-EDTA infusion; vs solvent
Experimental: Six groups of eight male Wistar rats (200-250 g) were used for this study. The animals were fitted with an indwelling intracolonic catheter in the proximal colon (3 cm from the caeco-colic junction). In these experiments, four groups of rats received a 10-hour intracolonic infusion of ^51Cr-EDTA ([…]). The animals were placed in separate cages and total 24-hour urine was collected. Radioactivity was measured in the urine to evaluate the permeability of the colon mucosa to ^51Cr-EDTA. Increasing doses of the PAR-2 activator peptide (SLIGRL) were injected in the colon lumen (groups 2, 3 and 4) at time t=0 (start of ^51Cr-EDTA infusion) at a dose of 0.05, 0.2 and 0.5 mg/rat. Group 1 received the solvent.

male Swiss mice [3] = experiment: Colon paracellular permeability in mice after trypsin, supernatant of colon contents and antibiotic cocktail; conditions: mouse, intracolonic trypsin 50 μL
Experimental: Groups of ten male Swiss mice (Janvier-France) weighing 25-30 g were used for this study. In baseline conditions, the effects on colon paracellular permeability of intracolonic infusion of trypsin (50 μL, 600 U) and of supernatant of colon contents taken from control mice and given by a 3-hour intracolonic infusion (250 μL/h) on one day (D1) or on two consecutive days (D2) were evaluated. The same infusions were then repeated after 12 days of treatment with oral an antibiotic cocktail (neomycin 2 mg/kg/day+ampicillin 1 mg/kg/day).

male Wistar rats [4] = experiment: Rectal sensitivity to distention (abdominal contractions, EMG) after intracolonic trypsin; conditions: rat, distention at t=10 h, distention volumes 0.8, 1.2 and 1.6 ml, vs solvent control
Experimental: At time t=0, the animals received an intracolonic infusion of trypsin ([…]), a specific PAR-2 receptor activator at the dose of 20 units (group 1) or solvent (group 2). At time t=10 h after the intracolonic trypsin infusion, the animals were subjected to the rectal distention protocol.

Compound: CNC(=O)[C@H](Cc1c[nH]c2ccccc12)NC(=O)[C@@H](CC(=O)NO)CC(C)C [galardin]
- paracellular permeability (total radioactivity remaining in the body) (male Swiss mice [1]): significantly lower

Compound: SLIGRL
- permeability to 51Cr-EDTA (recovery in 24-hour urine) (male Wistar rats [2]): dose-dependent increase

Compound: aprotinin
- paracellular permeability (total radioactivity remaining in the body) (male Swiss mice [1]): significantly lower

Compound: trypsin
- increase in colon permeability after the antibiotic treatment (male Swiss mice [3]; 600 U after 12 days of antibiotic cocktail): disappeared
- colon paracellular permeability, baseline conditions (male Swiss mice [3]; 600 U, normal mice): increase
- abdominal response to rectal distention (male Wistar rats [4]): significant decrease
